Experimental data reported in patent US8546113B2, “Hydrogen peroxide-forming NADH oxidase and DNA encoding the same” (Keio University, priority 2008, dated 2013).

How the values were obtained:
[1] = system: NADH oxidase isolated from Brevibacterium sp.; assay: Kinetic analysis of NADH oxidation (Lineweaver-Burk plot, absorbance at 340 nm); format: biochemical, Brevibacterium sp. KU1309; details: for Km: NOX 0.28 ug/ml
Procedure: (§1) Enzyme activity was evaluated by measuring the absorbance at 340 nm, which decreases as a result of oxidization of NADH to NAD^+, with the use of an absorptiometer. A reaction was induced by adding an enzyme solution to a mixture of 0.1 mM NADH, 100 mM Tris-HCL (pH 8.8), and 500 mM ammonium sulfate. Herein, “1 unit” is defined as the amount of an enzyme that allows oxidation of 1μ mole of NADH per minute.
For kinetic analysis, the reaction rate was determined at an NADH concentration of 10 μM to 100 μM. A Lineweaver-Burk plot was created based on the obtained values. The reaction was carried out as described below. A reaction solution (NOX: 0.28 ug/ml; NADH: 10 μM to 100 μM; (NH4)2SO4: 500 mM; and Tris-HCl: 100 mM (pH 8.8)) was introduced into an absorptiometer cell, followed by determination of the absorbance at 340 nm. Accordingly, the reaction rate was determined.

[2] = system: NADH oxidase isolated from Brevibacterium sp.; assay: Substrates and activity levels in the presence of cofactors; format: biochemical, Brevibacterium sp. KU1309
Procedure: as §1

[3] = system: NADH oxidase isolated from Brevibacterium sp.; assay: H2O2 formation confirmation and quantification (o-dianisidine/peroxidase, Abs460); format: biochemical, Brevibacterium sp. KU1309; details: NADH 75, 100 and 150 μM
Procedure: NOX is classified into the H2O by-product type and the H2O2 by-product type. With the use of the assay method shown in FIG. 8A, H2O2 formation confirmation and H2O2 quantification were carried out. First, the reaction was carried out with the use of hydrogen peroxide, o-dianisidine, and peroxidase at known concentrations. The standard curve of [H2O2] vs Abs460 was created. The symbol “♦” denotes each obtained plotted point on the curve in FIG. 8B. […] The reaction was completed after the elapse of a sufficient reaction time. The completion of the reaction was confirmed with the use of an absorptiometer. The obtained reaction solution (50 μl) was added to a 100 mM phosphate buffer (pH 7.0) containing o-dianisidine and peroxidase, followed by absorbance determination. The symbol “□” denotes each obtained plotted point on the curve in FIG. 8B. […] It is understood that the values were identical to the relevant [H2O2] concentrations.

[4] = system: NADH oxidase isolated from Brevibacterium sp.; details: inhibitor 1 mM, 3 minutes at room temperature; NADH 10 μM; (NH4)2SO4 500 mM; Tris-HCl pH 8.8; not stated whether % inhibition or % relative activity
Procedure: The enzyme solution was added to 100 mM Tris-HCl (pH 8.8). Further, an inhibitor was added thereto to a final concentration of 1 mM, followed by incubation at room temperature for 3 minutes. Then, NADH and (NH4)2SO4 were added thereto so as to result in concentrations of 10 μM and 500 mM, respectively, followed by determination of the absorbance at 340 nm. Accordingly, the reaction rate was determined.

[5] = system: NADH oxidase isolated from Brevibacterium sp.; assay: Effects of salts on enzyme activity; format: biochemical, Brevibacterium sp. KU1309
Procedure: Reaction was carried out with the addition of different salts, followed by determination of absorbance at 340 nm. Then, the reaction rate was determined. […] Then, the effects of ammonium salt concentration upon enzyme activity were examined in the manner described below. The reaction was carried out in the presence of ammonium sulfate at a concentration of 0 M to 4.35 M. Thereafter, the relative value of the reaction rate was calculated.

[6] = NADH 10 μM to 100 μM, (NH4)2SO4 500 mM, Tris-HCl 100 mM (pH 8.8)
[7] = as substrate, no cofactor added, NADH without cofactor = 100
[8] = substrate NADH, cofactor added at 1 mM

## reduced nicotinamide adenine dinucleotide [NADH]
[1]; Calculated with a molecular weight of 101.68 kDa
  Kcat: 15.01 s⁻¹
[1]; [6]
  Vmax: 8.86 Unit/mq
  Km: 22 µM
[2]; [7]
  Specific activity (%): 100%
[3]
  hydrogen peroxide formed on oxidization of 1 mol of NADH: 1 mol

## Cc1cc2nc3c(=O)[nH]c(=O)nc-3n(C[C@H](O)[C@H](O)[C@H](O)COP(=O)(O)OP(=O)(O)OC[C@H]3O[C@@H](n4cnc5c(N)ncnc54)[C@H](O)[C@@H]3O)c2cc1C [FAD]
[2]
  activation caused by FAD or FMN: not observed
[2]; [8]
  Specific activity (%): 101%

## [Ag+] [Ag^+]
[4]
  activity inhibited (FIG. 6 relative activity values): 37%

## NC(=O)C1=CN([C@@H]2O[C@H](COP(=O)(O)OP(=O)(O)OC[C@H]3O[C@@H](n4cnc5c(N)ncnc54)[C@H](OP(=O)(O)O)[C@@H]3O)[C@@H](O)[C@H]2O)C=CC1 [NADPH]
[2]
  degree of NADPH-oxidizing activity: low
[2]; [7]
  Specific activity (%): 2%

## [Zn+2] [Zn^2+]
[4]
  activity inhibited (FIG. 6 relative activity values): 39%

## N.N.O=S(=O)(O)O [ammonium salt, ammonium sulfate]
[5]
  effect of addition of salt on enzyme activity: increases
[5]; ammonium sulfate 0 M to 4.35 M
  ammonium salt concentration ([NH4+]) at maximum activity: 3.0 M

## Cc1cc2nc3c(=O)[nH]c(=O)nc-3n(C[C@H](O)[C@H](O)[C@H](O)COP(=O)(O)O)c2cc1C [FMN]
[2]
  activation caused by FAD or FMN: not observed
[2]; [8]
  Specific activity (%): 104%

## [Cu+2] [Cu^2+]
[4]
  activity inhibited (FIG. 6 relative activity values): 42%

B1: enzyme of the present invention: hydrogen peroxide-forming NADH oxidase from Brevibacterium sp. KU1309, homodimer, amino acid sequence of SEQ ID NO: 18 (protein, listed as Brevibacterium sp.)
chain: VSDELTYDLVVLGGGTGGYAAALRAAELDMKVALIERDKVGGTCLHRGCVPTKALLHAAEVAETAKNSETFGIEAELQGIDIAKVLEYKDGVITRNYKGLQGLVKARGIDTYFGTGKLVGKDTVEVTGEDGNHTVKGTNVLLSTGSTSKTIGLEVTDRVITSTEALQLDKVPSSAIVLGGGVIGVEFASVWNSFGAEVTIVEGLKHLVANEDETISKNLERAFKKRKIKFKLGVMFKGVEETADGVKVTLEDGSTLEAEYLLVAVGRGPVTEGFGFEEQGIPMDRGFVLASERLHTGVGNIYACGDIVPGLQLAHRAFGQGIFIAEEIAGLNPAPVVESGIPRVTYCEPEIFSVGLSSAQAEEKYGKDQVESLEYNLGGNGKSVILNTTGLIKVIREKDGPVVGVHGIGARLSEQAGEAQLIVNWEAFPEEVAQLIHAHPTQNEALGEAHLALAGKPLHFHS
modifications: homodimer
[1]; [6]
  Km: 22 µM
[3]
  hydrogen peroxide formed on oxidization of 1 mol of NADH: 1 mol
